Data reported in US20220143150A1 (ENZENE BIOSCIENCES LIMITED, priority 2019, published 2022).

Key:
[1] = Pharmacokinetic analysis in STZ-induced diabetes mellitus Wistar rats, single subcutaneous dose, serum ELISA; assay type: in vivo; details: male, rat, sc, STZ diabetic Wistar rats, single dose 5 mg/kg subcutaneous
Protocol: Streptozotocin (STZ), preferentially toxic to pancreatic beta cells, is commonly used to model […] diabetes mellitus (DM) in numerous species, including Wistar rat. 12-14 week-old male Wistar rats (300-380 g body weight) were selected for the study. Rats were randomly distributed to different groups based on ad-lib fed blood glucose and body weight. The diabetes mellitus (DM) was induced in Wister rats by single intraperitoneal injection of streptozotocin at 60 mg/kg STZ (n=6) in both control and test group for two weeks.
Basal glucose levels were recorded for all the animals before injecting STZ. All animals were again evaluated for the elevated blood levels after 15 days of STZ treatment. After the confirmation of high glucose levels animals were treated with single dose (5 mg/kg) of Liraglutide and D-Liraglutide by subcutaneous route.
Blood samples were collected at 0 (Pre-dose), 1, 2, 4, 8, 12, 24, 48, 72, 96, 120 and 144 h, post dose. At each time point, approximately, 0.3 mL of blood was withdrawn through retro orbital plexus under light isoflurane anesthesia in a labeled microfuge tube. All blood samples were centrifuged at 7000 rpm for 5 min at set temperature of 4° C. […]
The ELISA was performed for the quantitative measurement of the Liraglutide in the serum samples using Cloud-Clone Corp. (CEV769Ge 96 Tests) kit. […]

[2] = once-weekly subcutaneous injection, dose of 0.5 or 1 mg; cited from earlier work

Compound	MRT [1] [h]	half-life [2] [h]	time to reach steady state [2]
CCCCCCCCCCCCCCCC(=O)N[C@@H](CCC(=O)NCCCC[C@H](NC(=O)[C@H](C)NC(=O)[C@H](C)NC(=O)[C@H](CCC(N)=O)NC(=O)CNC(=O)[C@H](CCC(=O)O)NC(=O)[C@H](CC(C)C)NC(=O)[C@H](Cc1ccc(O)cc1)NC(=O)[C@H](CO)NC(=O)[C@H](CO)NC(=O)[C@@H](NC(=O)[C@H](CC(=O)O)NC(=O)[C@H](CO)NC(=O)[C@@H](NC(=O)[C@H](Cc1ccccc1)NC(=O)[C@@H](NC(=O)CNC(=O)[C@H](CCC(=O)O)NC(=O)[C@H](C)NC(=O)[C@@H](N)Cc1cnc[nH]1)[C@@H](C)O)[C@@H](C)O)C(C)C)C(=O)N[C@@H](CCC(=O)O)C(=O)N[C@@H](Cc1ccccc1)C(=O)N[C@H](C(=O)N[C@@H](C)C(=O)N[C@@H](Cc1c[nH]c2ccccc12)C(=O)N[C@@H](CC(C)C)C(=O)N[C@H](C(=O)N[C@@H](CCCNC(=N)N)C(=O)NCC(=O)N[C@@H](CCCNC(=N)N)C(=O)NCC(=O)O)C(C)C)[C@@H](C)CC)C(=O)O [Liraglutide]	34.8		
semaglutide		170	4-5 weeks
